Experimental findings from ChEMBL document CHEMBL5365549, “Neurosteroids and Postpartum Depression: The Mechanism, Efficacy, and Approval of Brexanolone and Zurzuvae” (ACS Med Chem Lett, 2023) are described below.

The nature of series [1]: Inhibition of rat brain cortical membrane GABA alpha receptor by TBPS binding assay. It is filed as cell membranes, Cortex.
The nature of series [2]: AUC (0 to t) in human at 30 mg administered as formulated fed (high-fat meal) capsules. Conditions: in vivo, po. More on the design: dose 30 mg. It counts as ADME.
Series [3] is described as follows: Cmax in human at 30 mg administered as formulated fed (high-fat meal) capsules. It counts as ADME. Further details: dose 30 mg. Conditions: in vivo, po.
Series [4] in a line: AUC (0 to infinity) in human at 30 mg administered as formulated fed (high-fat meal) capsules. It counts as ADME. Further details: dose 30 mg. Conditions: in vivo, po.
Series [5] can be described thus: Cmax in human at 30 mg administered as formulated fasted capsules. It is filed as ADME. Further details: dose 30 mg. Conditions: in vivo, po.
A short description of series [6]: AUC (0 to t) in human at 30 mg administered as formulated fasted capsules. Conditions: in vivo, po. More on the design: dose 30 mg. It counts as ADME.
Series [7] in a line: AUC (0 to infinity) in human at 30 mg administered as formulated fasted capsules. It counts as ADME. More on the design: dose 30 mg. Conditions: in vivo, po.

As usually defined, the IC50 is the point on the concentration scale where inhibition reaches its midpoint. A lower IC50 goes with greater potency. The compound `CC(=O)[C@H]1CC[C@H]2[C@@H]3CC[C@H]4C[C@](C)(O)CC[C@@H]4[C@H]3CC[C@]12C` displayed an IC50 in series [1] of 93 nM.

For the compound `CC(=O)[C@H]1CC[C@H]2[C@@H]3CC[C@@H]4C[C@@](O)(C(F)F)CC[C@@H]4[C@H]3CC[C@]12C`, the IC50 in series [1] stood at 33 nM.

One may read the AUC(0-t) as the area under the concentration-time curve up to a stated or last time point. A lower AUC(0-t) goes with less exposure. The Cmax is the maximum level reached in the sampled fluid or tissue. The term AUC(0-inf) denotes total exposure, with the tail of the curve extrapolated. A high value points to high exposure. In the case of `C[C@@]1(O)CC[C@H]2[C@H](CC[C@@H]3[C@@H]2CC[C@]2(C)[C@@H](C(=O)CO)CC[C@@H]32)C1`, the AUC(0-t) is 838 ng·h/mL in series [2] and 530 ng·h/mL in series [6]. Further, the Cmax worked out at 63.1 ng/mL in series [3] and 21.8 ng/mL in series [5]. In addition, the AUC(0-inf) in series [4] is 1010 ng·h/mL; in series [7] it was 640 ng·h/mL. In series [1], this compound gave an IC50 of 86 nM.

`COC[C@@]1(O)CC[C@H]2[C@H](CC[C@@H]3[C@@H]2CC[C@]2(C)[C@@H](C(C)=O)CC[C@@H]32)C1` registered an IC50 in series [1] of 41 nM.

Turning to `COC[C@@]1(O)CC[C@H]2[C@@H](CC[C@@H]3[C@@H]2CC[C@]2(C)[C@@H](C(=O)CO)CC[C@@H]32)C1`, the IC50 in series [1] stood at 94 nM.

Consider `COC[C@@]1(O)CC[C@H]2[C@H](CC[C@@H]3[C@@H]2CC[C@]2(C)[C@@H](C(=O)CO)CC[C@@H]32)C1`, for which the IC50 in series [1] turned out to be 170 nM.
